# Reference: publication PMC3714282, “Pharmacometabolomics of Response to Sertraline and to Placebo in Major Depressive Disorder – Possible Role for Methoxyindole Pathway” (PLoS ONE, 2013)
# System: serum metabolites (tryptophan, tyrosine, purine pathways, antioxidants)
# Assay: LCECA metabolomic profiling of serum: change from baseline at week 1 and week 4 (all, responders, non-responders)
# Assay type: in vivo, human
# Source text: Study participants were outpatients, 18–65 years of age, from various clinical sites across the United States. […] A complete description of the inclusion and exclusion used in this study can be found in Table S1. The study protocol was developed in accordance with the principles of the Declaration of Helsinki. All patients provided written informed consent. The study was sponsored and monitored by Pfizer, Inc. Each site's institutional review board approved and oversaw the study. The primary outcome measure was the HAMD17, used to assess depressive symptom severity. Measures were gathered at baseline, and weeks 1 and 4 of treatment at the patient's visits. Serum samples were collected using standard protocol at baseline, week 1 and week 4 of treatment at the clinic visits. Whole blood was collected in serum collection tubes and inverted 5–8 times. Serum samples were allowed to clot at room temperature for 60 minutes and then centrifuged at 1,300×g for 15 minutes. Following centrifugation supernatant was frozen at −80°C until analysis.
# Samples were analyzed using a liquid chromatography electrochemical array (LCECA) platform that has been extensively validated and used in our prior studies in neurodegenerative and psychiatric disorders [30]–[34]. The method includes multiple compounds from the tyrosine, tryptophan, sulfur amino acids and purine pathways, and markers of oxidative stress and protection (for the list of metabolites and abbreviations see Table 1). Levels of 5-Methoxytryptamine (5-MTPM) were measured using a gas chromatography time-of-flight-mass spectrometry (GCTOF-MS) platform. Samples were prepared for analysis as previously described. During the sample preparation, pools were created from equal volumes of subaliquots of all samples. Concentrations of metabolites in the individual samples were expressed as a percentage of the concentration of those metabolites in the averaged pool.
# Data preprocessing: We first removed the metabolites that have more than 40% missing values. […] Principal components analysis (PCA; SIMCA-P+12.0) was used to identify outliers. The analysis was performed for each time point. […] Subjects with ≥3 standard deviations away from the center of data cloud within two principal components (PC's) scores scatter plot were considered outliers and were removed from further analysis.
# These analyses were conducted separately for the sertraline and placebo groups. Between groups t-tests were used to compare baseline to one week and baseline to four week change scores between the sertraline and placebo groups.
# Signatures of response to sertraline and placebo were identified by using paired t-tests to compare week 4 metabolite levels to baseline metabolite levels in the responders and non-responders to therapy. […] These analyses were also performed to evaluate changes in ratios of individual metabolites within (e.g., 5-HT/5-HTP) and between branches of tryptophan pathway (e.g., KYN/MEL).
# [1] = after four week of treatment, responders
# [2] = after one week of treatment, non-responders
# [3] = serum, four weeks, non-responders to sertraline
# [4] = serum, four weeks, poor response to sertraline
# [5] = serum, four weeks, responders to sertraline
# [6] = serum, log-transformed concentration, after four weeks, sertraline group
compound,measurement,setting,value
"CN[C@H]1CC[C@@H](c2ccc(Cl)c(Cl)c2)c2ccccc21 [Sertraline, sertraline]",Change of MHPG (average change of log-transformed concentration),[1],-0.16
same,Change of NA-5-HT (average change of log-transformed concentration),[1],0.071
same,Change of TRP (average change of log-transformed concentration),[1],0.041
same,Change of TRPOL (average change of log-transformed concentration),[1],0.068
same,Change of TYR (average change of log-transformed concentration),[1],0.14
same,Change of UA (average change of log-transformed concentration),[1],-0.027
same,Change of VMA (average change of log-transformed concentration),[1],-0.077
same,Change of XAN (average change of log-transformed concentration),[1],-0.14
same,Change of XANTH (average change of log-transformed concentration),[1],0.0046
same,Change of 3-OHKY (average change of log-transformed concentration),[2],-0.11
same,Change of 3-OMD (average change of log-transformed concentration),[2],-0.082
same,Change of 4-HBAC (average change of log-transformed concentration),[2],-0.44
same,Change of 4-HPAC (average change of log-transformed concentration),[2],0.18
same,Change of 4-HPLA (average change of log-transformed concentration),[2],0.055
same,Change of 5-HIAA (average change of log-transformed concentration),[2],-0.19
same,Change of 5-HT (average change of log-transformed concentration),[2],-0.72
same,Change of 5-HTP (average change of log-transformed concentration),[2],-0.14
same,Change of 5-MTPOL (average change of log-transformed concentration),[2],-0.027
same,Change of 7-MXAN (average change of log-transformed concentration),[2],0.16
same,Change of ATOCO (average change of log-transformed concentration),[2],0.084
same,Change of CYS (average change of log-transformed concentration),[2],-0.056
same,Change of DIOHMAL (average change of log-transformed concentration),[2],0.17
same,Change of DOPAC (average change of log-transformed concentration),[2],-0.18
same,Change of DTOCO (average change of log-transformed concentration),[2],0.024
same,Change of GR (average change of log-transformed concentration),[2],-0.47
same,Change of GRMP (average change of log-transformed concentration),[2],-0.012
same,Change of GSH (average change of log-transformed concentration),[2],-0.0084
same,Change of HGA (average change of log-transformed concentration),[2],0.34
same,Change of HVA (average change of log-transformed concentration),[2],0.0025
same,Change of HX (average change of log-transformed concentration),[2],-0.066
same,Change of KYN (average change of log-transformed concentration),[2],-0.11
same,Change of LD (average change of log-transformed concentration),[2],0.053
same,Change of MEL (average change of log-transformed concentration),[2],0.3
same,Change of METH (average change of log-transformed concentration),[2],0.16
same,Change of MHPG (average change of log-transformed concentration),[2],-0.072
same,Change of NA-5-HT (average change of log-transformed concentration),[2],0.027
same,Change of TRP (average change of log-transformed concentration),[2],-0.022
same,Change of TRPOL (average change of log-transformed concentration),[2],0.0024
same,Change of TYR (average change of log-transformed concentration),[2],-0.073
same,Change of UA (average change of log-transformed concentration),[2],-0.095
same,Change of VMA (average change of log-transformed concentration),[2],0.12
same,Change of XAN (average change of log-transformed concentration),[2],-0.18
same,Change of XANTH (average change of log-transformed concentration),[2],0.11
same,Change in 5-HT levels,[3],significantly reduced
same,Change in 5-MTPOL levels,[3],not significantly changed
same,Change in DIOHMAL levels,[3],significantly increased
same,Change in MEL levels,[3],not significantly changed
same,Change in HGA levels,[4],Significant increases
same,Change in LD levels,[4],Significant increases
same,Change in 4-HPAC levels,[5],significantly increased
same,Change in 5-HT levels,[5],significant decrease
same,Change in 5-MTPOL levels,[5],significant increases
same,Change in DIOHMAL levels,[5],significantly increased
same,Change in MEL levels,[5],significant increases
same,Change 3-OHKY,[6],0.044
same,Change 3-OMD,[6],0.079
same,Change 4-HBAC,[6],0.12
same,Change 4-HPAC,[6],0.26
same,Change 4-HPLA,[6],0.13
same,Change 5-HIAA,[6],−0.06
